From patent US20250025443A1, “COMPOUNDS AND METHODS FOR TREATING CORONA VIRUSES” (CLEAR CREEK BIO, INC., priority 2021, published 2025) come the findings set out here.

Each structure is given as a SMILES string.

The target in the first test is SARS-CoV-2 Papain-Like Protease (PLpro) (Severe acute respiratory syndrome coronavirus 2 (2019-nCoV) (SARS-CoV-2), UniProt P0DTD1). Nature of the test: biochemical. The conditions noted are these: PLpro enzymatic fluorescence assay; class symbols; read-out: PLpro IC50.
`COc1cc(C2(NC(=O)c3cc(OCCNC(C)(C)C)ccc3C)CC2)c2cccnc2c1` [Compound 626, 5-(2-(tert-Butylamino)ethoxy)-N-(1-(7-methoxyquinolin-5-yl)cyclopropyl)-2-methylbenzamide]: the IC50 was less than 100 nM.

Regarding `CNCCOc1ccc(C)c(C(=O)NC2(c3cc(-c4cccs4)cc4ncccc34)CC2)c1` [Compound 630, 2-Methyl-5-(2-(methylamino)ethoxy)-N-(1-(7-(thiophen-2-yl)quinolin-5-yl)cyclopropyl)benzamide], the IC50 was less than 100 nM. On the same count and under the same terms, under `Cc1ccc(OC[C@@H]2CCN2C)cc1C(=O)NC1(c2cc(-c3cc(Cl)cs3)cc3ncccc23)CC1` [Compound 632, (S)-N-(1-(7-(4-Chlorothiophen-2-yl)quinolin-5-yl)cyclopropyl)-2-methyl-5-((1-methylazetidin-2-yl)methoxy)benzamide] stands less than 100 nM.

For `Cc1ccc(OC[C@@H]2CCN2C)cc1C(=O)NC1(c2cc(-c3cc[nH]n3)cc3ncccc23)CC1` [Compound 633, (S)-N-(1-(7-(1H-Pyrazol-3-yl)quinolin-5-yl)cyclopropyl)-2-methyl-5-((1-methylazetidin-2-yl)methoxy)benzamide], the half-maximal inhibitory concentration (IC50) is less than 100 nM. Consider `Cc1ccc(OC[C@@H]2CCN2)cc1C(=O)NC1(c2cc(-c3ccn(C)n3)cc3ncccc23)CC1` [Compound 634, (S)-5-(Azetidin-2-ylmethoxy)-2-methyl-N-(1-(7-(1-methyl-1H-pyrazol-3-yl)quinolin-5-yl)cyclopropyl)benzamide], for which the half-inhibitory concentration (IC50) is less than 100 nM.

On to `Cc1cc(-c2cc(C3(NC(=O)c4cc(OC[C@@H]5CCN5)ccc4C)CC3)c3cccnc3c2)n[nH]1` [Compound 635, (S)-5-(Azetidin-2-ylmethoxy)-2-methyl-N-(1-(7-(5-methyl-1H-pyrazol-3-yl)quinolin-5-yl)cyclopropyl)benzamide], for which the IC50 was less than 100 nM.

With `Cc1ccc(OC[C@@H]2CCN2)cc1C(=O)NC1(c2cc(-c3cc[nH]n3)cc3ncccc23)CC1` [Compound 636, (S)-N-(1-(7-(1H-Pyrazol-3-yl)quinolin-5-yl)cyclopropyl)-5-(azetidin-2-ylmethoxy)-2-methylbenzamide], the IC50 was less than 100 nM. On to `Cc1ccc(OC[C@@H]2CCN2)cc1C(=O)NC1(c2cc(-c3cccnc3)cc3ncccc23)CC1` [Compound 637, (S)-5-(Azetidin-2-ylmethoxy)-2-methyl-N-(1-(7-(pyridin-3-yl)quinolin-5-yl)cyclopropyl)benzamide], for which the IC50 was less than 100 nM. On the same count and under the same terms, under `CC(=O)c1cc(C2(NC(=O)c3cc(OC[C@@H]4CCN4C)ccc3C)CC2)c2cccnc2c1` [Compound 638, (S)-N-(1-(7-Acetylquinolin-5-yl)cyclopropyl)-2-methyl-5-((1-methylazetidin-2-yl)methoxy)benzamide] stands less than 100 nM; under `CNCCOc1ccc(C)c(C(=O)NC2(c3cc(-c4ccnn4C)cc4ncccc34)CC2)c1` [Compound 639, 2-Methyl-N-(1-(7-(1-methyl-1H-pyrazol-5-yl)quinolin-5-yl)cyclopropyl)-5-(2-(methylamino)ethoxy)benzamide], less than 100 nM.

In the case of `Cc1cc(-c2cc(C3(NC(=O)c4cc(OC[C@@H]5CCN5)ccc4C)CC3)c3cccnc3c2)cs1` [Compound 640, (S)-5-(Azetidin-2-ylmethoxy)-2-methyl-N-(1-(7-(5-methylthiophen-3-yl)quinolin-5-yl)cyclopropyl)benzamide], the IC50 was less than 100 nM. For the molecule `Cc1cc(-c2cc(C3(NC(=O)c4cc(OC[C@@H]5CCN5)ccc4C)CC3)c3cccnc3c2)c(C)o1` [Compound 641, (S)-5-(Azetidin-2-ylmethoxy)-N-(1-(7-(2,5-dimethylfuran-3-yl)quinolin-5-yl)cyclopropyl)-2-methylbenzamide], the IC50 was less than 100 nM. Regarding `Cc1ccc(OC[C@@H]2CCN2)cc1C(=O)NC1(c2cc(-c3cn[nH]c3)cc3ncccc23)CC1` [Compound 642, (S)-N-(1-(7-(1H-Pyrazol-4-yl)quinolin-5-yl)cyclopropyl)-5-(azetidin-2-ylmethoxy)-2-methylbenzamide], the IC50 was less than 100 nM.

On to `CC(=O)c1ccc(-c2cc(C3(NC(=O)c4cc(OC[C@@H]5CCN5)ccc4C)CC3)c3cccnc3c2)s1` [Compound 643, (S)-N-(1-(7-(5-Acetylthiophen-2-yl)quinolin-5-yl)cyclopropyl)-5-(azetidin-2-ylmethoxy)-2-methylbenzamide], for which the half-maximal inhibitory concentration (IC50) is less than 100 nM. On the same count and under the same terms, as for `Cc1ccc(OC[C@@H]2CCN2C)cc1C(=O)NC1(c2cc(-c3ccn(C(F)F)n3)cc3ncccc23)CC1` [Compound 644, (S)-N-(1-(7-(1-(Difluoromethyl)-1H-pyrazol-3-yl)quinolin-5-yl)cyclopropyl)-2-methyl-5-((1-methylazetidin-2-yl)methoxy)benzamide], the figure is less than 100 nM; as for `Cc1ccc(OC[C@@H]2CCN2)cc1C(=O)NC1(c2cc(-c3ccoc3)cc3ncccc23)CC1` [Compound 645, (S)-5-(Azetidin-2-ylmethoxy)-N-(1-(7-(furan-3-yl)quinolin-5-yl)cyclopropyl)-2-methylbenzamide], less than 100 nM. Regarding `Cc1ccc(-c2cc(C3(NC(=O)c4cc(OC[C@@H]5CCN5)ccc4C)CC3)c3cccnc3c2)o1` [Compound 646, (S)-5-(Azetidin-2-ylmethoxy)-2-methyl-N-(1-(7-(5-methylfuran-2-yl)quinolin-5-yl)cyclopropyl)benzamide], the IC50 is less than 100 nM. `CNCCOc1ccc(C)c(C(=O)NC2(c3cc(-c4ccn(C)n4)cc4ncccc34)CC2)c1` [Compound 647, 2-Methyl-N-(1-(7-(1-methyl-1H-pyrazol-3-yl)quinolin-5-yl)cyclopropyl)-5-(2-(methylamino)ethoxy)benzamide]: the half-inhibitory concentration (IC50) is less than 100 nM.

Regarding `Cc1ccc(OC[C@@H]2CCN2C)cc1C(=O)NC1(c2cc(C3CCCC3)cc3ncccc23)CC1` [Compound 648, (S)-N-(1-(7-Cyclopentylquinolin-5-yl)cyclopropyl)-2-methyl-5-((1-methylazetidin-2-yl)methoxy)benzamide], the IC50 was less than 100 nM.

On to `Cc1ccc(OC[C@@H]2CCN2)cc1C(=O)NC1(c2cc(-c3ccnn3C)cc3ncccc23)CC1` [Compound 649, (S)-5-(Azetidin-2-ylmethoxy)-2-methyl-N-(1-(7-(1-methyl-1H-pyrazol-5-yl)quinolin-5-yl)cyclopropyl)benzamide], for which the IC50 was less than 100 nM. In the case of `C=C(c1cc(C2(NC(=O)c3cc(OC[C@@H]4CCN4C)ccc3C)CC2)c2cccnc2c1)C(F)(F)F` [Compound 650, (S)-2-Methyl-5-((1-methylazetidin-2-yl)methoxy)-N-(1-(7-(3,3,3-trifluoroprop-1-en-2-yl)quinolin-5-yl)cyclopropyl)benzamide], the 50% inhibitory concentration (IC50) was less than 100 nM.

Consider `Cc1cc(-c2cc(C3(NC(=O)c4cc(OC[C@@H]5CCN5C)ccc4C)CC3)c3cccnc3c2)n[nH]1` [Compound 651, (S)-2-Methyl-N-(1-(7-(5-methyl-1H-pyrazol-3-yl)quinolin-5-yl)cyclopropyl)-5-((1-methylazetidin-2-yl)methoxy)benzamide], for which the half-inhibitory concentration (IC50) was less than 100 nM. Still for that read-out and setting: under `Cc1ccc(OC[C@@H]2CCN2C)cc1C(=O)NC1(c2cc(-c3cn[nH]c3)cc3ncccc23)CC1` [Compound 652, (S)-N-(1-(7-(1H-Pyrazol-4-yl)quinolin-5-yl)cyclopropyl)-2-methyl-5-((1-methylazetidin-2-yl)methoxy)benzamide] stands less than 100 nM; under `Cc1ccc(-c2cc(C3(NC(=O)c4cc(OC[C@@H]5CCN5C)ccc4C)CC3)c3cccnc3c2)o1` [Compound 654, (S)-2-Methyl-5-((1-methylazetidin-2-yl)methoxy)-N-(1-(7-(5-methylfuran-2-yl)quinolin-5-yl)cyclopropyl)benzamide], less than 100 nM. On the same count and under the same terms, as for `Cc1ccc(OC[C@@H]2CCN2C)cc1C(=O)NC1(c2cc(-c3ccoc3)cc3ncccc23)CC1` [Compound 655, (S)—N-(1-(7-(Furan-3-yl)quinolin-5-yl)cyclopropyl)-2-methyl-5-((1-methylazetidin-2-yl)methoxy)benzamide], the figure is less than 100 nM; as for `Cc1ccc(OC[C@@H]2CCN2)cc1C(=O)NC1(c2cc(-c3ccn(C(F)F)n3)cc3ncccc23)CC1` [Compound 656, (S)-5-(Azetidin-2-ylmethoxy)-N-(1-(7-(1-(difluoromethyl)-1H-pyrazol-3-yl)quinolin-5-yl)cyclopropyl)-2-methylbenzamide], less than 100 nM. As for `CC(=O)c1ccc(-c2cc(C3(NC(=O)c4cc(OC[C@@H]5CCN5C)ccc4C)CC3)c3cccnc3c2)s1` [Compound 657, (S)-N-(1-(7-(5-Acetylthiophen-2-yl)quinolin-5-yl)cyclopropyl)-2-methyl-5-((1-methylazetidin-2-yl)methoxy)benzamide], the IC50 is less than 100 nM. Still for that read-out and setting: under `Cc1ccc(OC[C@@H]2CCN2)cc1C(=O)NC1(c2cc(-c3ccc(C#N)s3)cc3ncccc23)CC1` [Compound 658, (S)-5-(Azetidin-2-ylmethoxy)-N-(1-(7-(5-cyanothiophen-2-yl)quinolin-5-yl)cyclopropyl)-2-methylbenzamide] stands less than 100 nM.

Consider `Cc1ccc(OC[C@@H]2CCN2C)cc1C(=O)NC1(c2cc(-c3ccn(-c4ccccc4)n3)cc3ncccc23)CC1` [Compound 659, (S)-2-Methyl-5-((1-methylazetidin-2-yl)methoxy)-N-(1-(7-(1-phenyl-1H-pyrazol-3-yl)quinolin-5-yl)cyclopropyl)benzamide], for which the IC50 was less than 100 nM. Regarding `C=C(C)c1cc(C2(NC(=O)c3cc(OC[C@H](C)NC)ccc3C)CC2)c2cccnc2c1` [Compound 660, (S)-2-Methyl-5-(2-(methylamino)propoxy)-N-(1-(7-(prop-1-en-2-yl)quinolin-5-yl)cyclopropyl)benzamide], the 50% inhibitory concentration (IC50) was less than 100 nM. Regarding `C=Cc1cc(C2(NC(=O)c3cc(OC[C@H](C)NC)ccc3C)CC2)c2cccnc2c1` [Compound 661, (S)-2-Methyl-5-(2-(methylamino)propoxy)-N-(1-(7-vinylquinolin-5-yl)cyclopropyl)benzamide], the IC50 is less than 100 nM.

Still in this test, the particulars now being: SARS-CoV-2 PLpro enzymatic fluorescence assay; read-out: PLpro IC50.
Take `Cc1ccc(OC[C@@H]2CCN2C)cc1C(=O)NC1(c2cc(N(C)C)cc3ncccc23)CC1` [Compound 627, (S)-N-(1-(7-(Dimethylamino)quinolin-5-yl)cyclopropyl)-2-methyl-5-((1-methylazetidin-2-yl)methoxy)benzamide]: the IC50 is less than 100 nM.

In general, IC50 refers to the midpoint of a concentration-inhibition curve.
